Results as given in PMC3989234, “Introduction of Aromatic Ring-Containing Substituents in Cyclic Nucleotides Is Associated with Inhibition of Toxin Uptake by the Hepatocyte Transporters OATP 1B1 and 1B3” (PLoS ONE, 2014).
Like-named read-outs stand apart in the source and are kept apart here.

Tests used:
OATP1B1 [1] = molecular target: T1, OATP1B1 (Homo sapiens, UniProt Q9Y6L6)
T1 sequence (Q9Y6L6 1-691): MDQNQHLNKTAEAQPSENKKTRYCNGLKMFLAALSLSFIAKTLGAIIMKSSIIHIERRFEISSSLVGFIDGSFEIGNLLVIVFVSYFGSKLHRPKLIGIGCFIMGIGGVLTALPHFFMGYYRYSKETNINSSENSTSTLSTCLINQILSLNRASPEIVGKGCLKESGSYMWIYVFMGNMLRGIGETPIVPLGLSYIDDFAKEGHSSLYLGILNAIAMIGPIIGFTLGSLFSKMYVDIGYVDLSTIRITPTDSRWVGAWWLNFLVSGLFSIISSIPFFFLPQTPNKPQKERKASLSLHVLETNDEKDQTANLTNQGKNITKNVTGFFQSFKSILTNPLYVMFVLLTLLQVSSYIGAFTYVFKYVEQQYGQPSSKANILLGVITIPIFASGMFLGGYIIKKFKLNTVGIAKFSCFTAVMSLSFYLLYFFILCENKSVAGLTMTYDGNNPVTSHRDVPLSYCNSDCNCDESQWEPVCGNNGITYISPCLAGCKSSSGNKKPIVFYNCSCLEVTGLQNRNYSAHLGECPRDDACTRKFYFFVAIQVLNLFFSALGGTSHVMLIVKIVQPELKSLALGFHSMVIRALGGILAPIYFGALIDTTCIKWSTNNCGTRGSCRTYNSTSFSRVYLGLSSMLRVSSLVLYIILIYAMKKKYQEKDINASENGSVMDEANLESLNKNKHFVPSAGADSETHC

OATP1B3 [2] = molecular target: T2, OATP1B3 (Homo sapiens, UniProt Q9NPD5)
T2 sequence (Q9NPD5 whole entry): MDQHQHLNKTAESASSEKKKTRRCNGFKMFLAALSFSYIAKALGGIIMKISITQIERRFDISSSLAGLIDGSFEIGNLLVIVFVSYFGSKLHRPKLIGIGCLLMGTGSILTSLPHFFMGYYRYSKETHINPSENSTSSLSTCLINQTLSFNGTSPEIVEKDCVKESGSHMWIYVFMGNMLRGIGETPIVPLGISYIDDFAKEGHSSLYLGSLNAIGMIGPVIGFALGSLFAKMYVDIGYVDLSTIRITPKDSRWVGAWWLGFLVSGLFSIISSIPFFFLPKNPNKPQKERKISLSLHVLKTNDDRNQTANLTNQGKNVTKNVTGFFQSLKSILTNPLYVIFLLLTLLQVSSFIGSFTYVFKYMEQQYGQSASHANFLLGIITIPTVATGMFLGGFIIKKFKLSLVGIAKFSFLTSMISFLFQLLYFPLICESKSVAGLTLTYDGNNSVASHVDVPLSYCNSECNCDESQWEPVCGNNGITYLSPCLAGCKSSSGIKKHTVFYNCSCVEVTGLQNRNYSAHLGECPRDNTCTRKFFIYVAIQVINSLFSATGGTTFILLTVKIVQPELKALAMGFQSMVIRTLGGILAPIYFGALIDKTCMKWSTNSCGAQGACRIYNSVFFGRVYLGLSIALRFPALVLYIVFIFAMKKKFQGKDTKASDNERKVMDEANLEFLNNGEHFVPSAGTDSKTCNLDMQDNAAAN

OATP1B1 [3] = molecular target: T1, OATP1B1; assay: cell-based
OATP1B3 [4] = molecular target: T2, OATP1B3; assay: cell-based
primary rat hepatocytes [5] = system: primary rat hepatocytes
primary rat hepatocytes [6] = system: primary rat hepatocytes; remark: listed apart in the source
primary rat hepatocytes [7] = system: primary rat hepatocytes; remark: listed apart in the source

In the case of `COC1C2OP(O)(=S)OCC2OC1n1c(Sc2ccc(Cl)cc2)nc2c(N)ncnc21` (single isomer, unassigned) [Rp-8-pCPT-2′-O-Me-cAMPS, 8-(4-Chlorophenylthio)-2′-O-methyladenosine-3′, 5′-cyclic monophosphorothioate, Rp-isomer], the IC50 (OATP1B1 [1]) is reported as over 300 µM and the IC50 (OATP1B3 [2]) is reported as over 300 µM.
For `Nc1nc2c(nc(Br)n2[C@@H]2O[C@@H]3COP(=O)(O)O[C@H]3[C@H]2O)c(=O)[nH]1` [Analog 8-Br-cGMP, 8-Bromoguanosine-3′, 5′-cyclic monophosphate], the “Effect on Nod-induced apoptosis / Nod transport, OATP1B1-transfected HEK293T cells” value (OATP1B1 [1]) was “inactive”, the IC50 (OATP1B1 [1]) was over 300 µM and the “Effect on Nod-induced apoptosis / Nod transport, OATP1B3-transfected HEK293T cells” value (OATP1B3 [2]) was “inactive”. For the same compound, the IC50 (OATP1B3 [2]) was over 300 µM.
In the case of `Nc1ncnc2c1ncn2C1OC2COP(=O)(O)OC2C1O` (centres unmarked) [cAMP], the “Effect on Nod-induced apoptosis / Nod transport, OATP1B1-transfected HEK293T cells” value (OATP1B1 [1]) is reported as “did not affect”, the “Effect on Nod-induced apoptosis / Nod transport, OATP1B3-transfected HEK293T cells” value (OATP1B3 [2]) is reported as “did not affect” and the IC50 (OATP1B1 [3]) is reported as over 300 µM. It also gave an IC50 (OATP1B3 [4]) of over 300 µM.
In the case of `Nc1ncnc2c1nc(Br)n2[C@@H]1O[C@@H]2COP(=O)(O)O[C@H]2[C@H]1O` [Analog 8-Br-cAMP, 8-Bromoadenosine-3′, 5′-cyclic monophosphate], the IC50 (OATP1B1 [1]) is reported as over 300 µM and the IC50 (OATP1B3 [2]) is reported as over 300 µM.
`CCCC(=O)Nc1ncnc2c1ncn2[C@@H]1O[C@@H]2COP(=O)(O)O[C@H]2[C@H]1OC(=O)CCC` [DB-cAMP, N^6, 2′-O-Dibutyryladenosine-3′, 5′-cyclic monophosphate] was tested, and the “Effect on Nod-induced apoptosis / Nod transport, OATP1B1-transfected HEK293T cells” value (OATP1B1 [1]; human) was “but not to OATP1B1 activity”, the IC50 (OATP1B1 [3]) was over 300 µM and the IC50 (OATP1B3 [4]) was 119 µM.
`CO[C@H]1C2OP(=O)(O)OC[C@H]2O[C@H]1n1c(Br)nc2c(N)ncnc21` (some centres unmarked) [8-Br-2′-O-Me-cAMP, 8-Bromo-2′-O-methyladenosine-3′, 5′-cyclic monophosphate] was tested, and the IC50 (OATP1B1 [1]) was over 300 µM, the “Effect on Nod-induced apoptosis / Nod transport, OATP1B3-transfected HEK293T cells” value (OATP1B3 [2]) was “some inhibition” and the IC50 (OATP1B3 [2]) was over 300 µM.
In the case of `CC(C)Cn1c(=O)n(C)c(=O)c2[nH]cnc21` [IBMX], the “Effect on Nod-induced apoptosis, OATP1B1-transfected cells” value (OATP1B1 [1]; 250 µM) is reported as “did not affect” and the “Effect on Nod-induced apoptosis, OATP1B3-transfected cells” value (OATP1B3 [2]; 250 µM) is reported as “did not affect”.
`CO[C@@H]1[C@H](O)[C@@H](CO)O[C@H]1n1c(Sc2ccc(Cl)cc2)nc2c(N)ncnc21` [8-pCPT-2′-O-Me-Ado, 8-(4-Chlorophenylthio)-2′-O-methyladenosine] showed an IC50 (OATP1B1 [3]) of 31.3 µM, a Ki (OATP1B1 [3]) of 10.4 µM and an IC50 (OATP1B3 [4]) of 17.2 µM. It also gave a Ki (OATP1B3 [4]) of 4.61 µM.
With `Nc1ncnc2c1nc(Sc1ccc(Cl)cc1)n2[C@@H]1O[C@H](CO)[C@@H](O)[C@H]1O` [Analog 8-pCPT-Ado, 8-(4-Chlorophenylthio)adenosine] the IC50 (OATP1B1 [3]) was over 300 µM, the IC50 (OATP1B3 [4]) was 150 µM and the Ki (OATP1B3 [4]) was 40.2 µM.
In the case of `CO[C@H]1/C=C/O[C@@]2(C)Oc3c(C)c(O)c4c(O)c(cc(O)c4c3C2=O)NC(=O)/C(C)=C\C=C\[C@H](C)[C@H](O)[C@@H](C)[C@@H](O)[C@@H](C)[C@H](OC(C)=O)[C@@H]1C` [rifamycin SV, Rifamycin SV], the “Effect on Nod-induced apoptosis / Nod transport, OATP1B1-transfected HEK293T cells” value (OATP1B1 [1]) is reported as “abolished” and the “Effect on Nod-induced apoptosis / Nod transport, OATP1B3-transfected HEK293T cells” value (OATP1B3 [2]) is reported as “abolished”.
`Nc1ncnc2c1ncn2[C@@H]1O[C@H](CO)[C@@H](O)[C@H]1O` [Adenosine, adenosine] gave an IC50 (OATP1B1 [3]) of over 300 µM and an IC50 (OATP1B3 [4]) of over 300 µM.
For `Nc1nc2c(nc(Sc3ccc(Cl)cc3)n2[C@@H]2O[C@@H]3COP(=O)(O)O[C@H]3[C@H]2O)c(=O)[nH]1` [Analog 8-pCPT-cGMP, 8-(4-Chlorophenylthio)guanosine-3′, 5′-cyclic monophosphate], the IC50 (OATP1B1 [1]) was 259 µM, the Ki (OATP1B1 [1]) was 86.3 µM and the IC50 (OATP1B3 [2]) was 88.8 µM. The Ki (OATP1B3 [2]) was 29.6 µM.
`C/C=C1/C(=O)N[C@@H](C(=O)O)[C@H](C)C(=O)N[C@@H](CCCNC(=N)N)C(=O)N[C@@H](/C=C/C(C)=C/[C@H](C)[C@H](Cc2ccccc2)OC)[C@H](C)C(=O)N[C@@H](C(=O)O)CCC(=O)N1C` [Nod, nodularin] showed a Km (OATP1B1 [1]; read-out: Km for Nod, OATP1B1) of 0.05 µM and a Km (OATP1B3 [2]; read-out: Km for Nod, OATP1B3) of 0.22 µM.
`O=P1(O)OC[C@H]2O[C@@H](n3c(Sc4ccc(Cl)cc4)nc4c(Nc5ccccc5)ncnc43)C[C@@H]2O1` [8-pCPT-6-Phe-dcAMP, 8-(4-Chlorophenylthio)-N^6-phenyladenosine-2′-deoxyadenosine 3′, 5′-cyclic monophosphate] showed an IC50 (OATP1B1 [1]) of 8.2 µM, a Ki (OATP1B1 [1]) of 2.73 µM and an IC50 (OATP1B3 [2]) of 8 µM. It also gave a Ki (OATP1B3 [2]) of 2.14 µM.
With `O=P1(O)OCC2OC(n3c(Sc4ccc(Cl)cc4)nc4c(Nc5ccccc5)ncnc43)C(O)C2O1` (centres unmarked) [8-pCPT-6-Phe-cAMP, 8-(4-Chlorophenylthio)-N^6-phenyladenosine-3′, 5′-cyclic monophosphate] the Ki (OATP1B1 [1]) was 2.07 µM and the Ki (OATP1B3 [2]) was 0.804 µM.
`CO[C@H]1C2OP(O)(=S)OC[C@H]2O[C@H]1n1c(Sc2ccc(Cl)cc2)nc2c(N)ncnc21` (single isomer, unassigned) [Sp-8-pCPT-2′-O-Me-cAMPS, 8-(4-Chlorophenylthio)-2′-O-methyladenosine-3′, 5′-cyclic monophosphorothioate, Sp- isomer] was tested, and the “Effect on Nod-induced hepatocyte apoptosis (Fig. 2A)” value (shortened to “Effect … (Fig. 2A)”) (primary rat hepatocytes [5]) was “clear inhibition”, the IC50 (OATP1B1 [1]) was 19.9 µM and the Ki (OATP1B1 [1]) was 6.63 µM. The IC50 (OATP1B3 [2]) was 8.7 µM, the Ki (OATP1B3 [2]) was 2.33 µM and the “Effect on [14C]-glycocholic acid accumulation in hepatocytes” value (primary rat hepatocytes [6]; 50 µM) was “almost completely inhibited”. The “Effect on [3H]-Nod accumulation in hepatocytes” value (“Effect on [3H]-Nod accumulation” below) (primary rat hepatocytes [7]) was “almost completely inhibited”.
`Nc1ncnc2c1nc(Br)n2C1OC2COP(O)(=S)OC2C1O` (single isomer, unassigned) [Rp-8-Br-cAMPS, 8-Bromoadenosine-3′, 5′-cyclic monophosphorothioate, Rp-isomer] was tested, and the “Effect on Nod-induced hepatocyte apoptosis (Fig. 1F)” value (primary rat hepatocytes [5]; 300 µM, 150 nM Nod) was “inhibited apoptotic morphology”, the IC50 (OATP1B1 [1]) was over 300 µM and the IC50 (OATP1B3 [2]) was over 300 µM.
`O=C1OC(c2ccc(O)c(S(=O)(=O)O)c2)(c2ccc(O)c(S(=O)(=O)O)c2)c2c(Br)c(Br)c(Br)c(Br)c21` [BSP, sulfobromophthalein] was tested, and the “Effect on [14C]-glycocholic acid accumulation in hepatocytes” value (primary rat hepatocytes [6]; 50 µM) was “complete inhibition” and the “Effect on [3H]-Nod accumulation” value (primary rat hepatocytes [7]) was “complete inhibition”.
`Nc1ncnc2c1nc(Sc1ccc(Cl)cc1)n2C1CC2OP(=O)(O)OCC2O1` (centres unmarked) [Analog 8-pCPT-dcAMP, 8-(4-Chlorophenylthio)adenosine-2′-deoxyadenosine-3′, 5′-cyclic monophosphate] was tested, and the “Effect … (Fig. 2A)” value (primary rat hepatocytes [5]) was “blocked Nod-induced apoptosis”, the IC50 (OATP1B1 [1]) was 223 µM and the Ki (OATP1B1 [1]) was 74.7 µM. For the same compound, the IC50 (OATP1B3 [2]) was 55.7 µM, the Ki (OATP1B3 [2]) was 14.9 µM and the “Effect on [14C]-glycocholic acid accumulation in hepatocytes” value (primary rat hepatocytes [6]) was “inhibited uptake”.
In the case of `Nc1nc2c(ncn2[C@@H]2O[C@@H]3COP(=O)(O)O[C@H]3[C@H]2O)c(=O)[nH]1` [cGMP], the “Effect on Nod-induced apoptosis / Nod transport, OATP1B1-transfected HEK293T cells” value (OATP1B1 [1]) is reported as “did not affect”, the IC50 (OATP1B1 [1]) is reported as over 300 µM and the “Effect on Nod-induced apoptosis / Nod transport, OATP1B3-transfected HEK293T cells” value (OATP1B3 [2]) is reported as “did not affect”. For the same compound, the IC50 (OATP1B3 [2]) was over 300 µM.
With `Nc1ncnc2c1nc(Sc1ccc(Cl)cc1)n2[C@@H]1O[C@@H]2COP(=O)([O-])O[C@H]2[C@H]1O.[Na+]` [Analog 8-pCPT-cAMP, 8-(4-Chlorophenylthio)adenosine-3′, 5′-cyclic monophosphate] the “Effect on Nod-induced hepatocyte apoptosis (Fig. 1A)” value (primary rat hepatocytes [5]) was “inhibited completely apoptotic morphology”, the “Effect … (Fig. 2A)” value (primary rat hepatocytes [5]) was “clear inhibition” and the “Effect on Nod-induced apoptosis / Nod transport, OATP1B1-transfected HEK293T cells” value (OATP1B1 [1]) was “inhibits”. For the same compound, the IC50 (OATP1B1 [1]) was 130 µM, the Ki (OATP1B1 [1]) was 43.3 µM and the “Effect on Nod-induced apoptosis / Nod transport, OATP1B3-transfected HEK293T cells” value (OATP1B3 [2]) was “inhibits”. For the same compound, the IC50 (OATP1B3 [2]) was 49.6 µM, the Ki (OATP1B3 [2]) was 13.3 µM and the “[14C]-GCA accumulation compared to control” value (primary rat hepatocytes [6]) was 60%.
For `CO[C@@H]1[C@@H]2OP(=O)(OCOC(C)=O)OC[C@H]2O[C@H]1n1c(Sc2ccc(Cl)cc2)nc2c(N)ncnc21` (some centres unmarked) [8-pCPT-2′-O-Me-cAMP-AM, 8-(4-Chlorophenylthio)-2′-O-methyladenosine-3′, 5′-cyclic monophosphate, acetoxymethyl ester], the “Effect on [14C]-glycocholic acid accumulation in hepatocytes” value (primary rat hepatocytes [6]; 50 µM) was “no inhibitory effect” and the “Effect on [3H]-Nod accumulation” value (primary rat hepatocytes [7]) was “did not affect”.
With `CCCC(=O)Nc1ncnc2c1ncn2[C@@H]1O[C@@H]2COP(=O)(O)O[C@H]2[C@H]1O` [Analog 6-MB-cAMP, N^6-Monobutyryladenosine-3′, 5′-cyclic monophosphate] the “Effect on Nod-induced hepatocyte apoptosis (Fig. 1A)” value (primary rat hepatocytes [5]) was “no change in apoptosis induction”, the “Effect on Nod-induced apoptosis / Nod transport, OATP1B1-transfected HEK293T cells” value (OATP1B1 [1]) was “no inhibitory effect” and the IC50 (OATP1B1 [1]) was over 300 µM. The “Effect on Nod-induced apoptosis / Nod transport, OATP1B3-transfected HEK293T cells” value (OATP1B3 [2]) was “no inhibitory effect”, the IC50 (OATP1B3 [2]) was over 300 µM and the “[14C]-GCA accumulation rel. to control” value (primary rat hepatocytes [6]; 50 µM) was “about 1.7”. For the same compound, the “[14C]-GCA accumulation rel. to control” value (primary rat hepatocytes [6]; 400 µM) was 1.1.
